Test results from ChEMBL document CHEMBL1201862, “PubChem BioAssay data set” (2004).
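Protocol summary: plate cells (96-well), add compound at 5 concentrations, incubate 48 h, interpolate endpoints linearly. GI50: concentration for 50% inhibition of growth.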 Calls of active or inactive are those of the source. No stated cut-off is given here; in the data, active = GI50 up to about 1.1 µM and inactive = higher.

Tests used:
Assay in all cases: NCI anticancer screen, dose series, 48 h
786-0 = tested on: 786-0
A498 = tested on: A498
A549 = tested on: A549
ACHN = tested on: ACHN
BT-549 = tested on: BT-549
COLO 205 = tested on: COLO 205
DU-145 = tested on: DU-145
EKVX = tested on: EKVX
HCC 2998 = tested on: HCC 2998
HCT-116 = tested on: HCT-116
HCT-15 = tested on: HCT-15
HL-60 = tested on: HL-60
HOP-62 = tested on: HOP-62
HOP-92 = tested on: HOP-92
HT-29 = tested on: HT-29
Hs-578T = tested on: Hs-578T
K562 = tested on: K562
LOX IMVI = tested on: LOX IMVI
M14 = tested on: M14
MCF7 = tested on: MCF7
MDA-MB-231 = tested on: MDA-MB-231
MDA-MB-435 = tested on: MDA-MB-435
MOLT-4 = tested on: MOLT-4
Malme-3M = tested on: Malme-3M
NCI-H226 = tested on: NCI-H226
NCI-H23 = tested on: NCI-H23
NCI-H460 = tested on: NCI-H460
NCI-H522 = tested on: NCI-H522
NCI/ADR-RES = tested on: NCI/ADR-RES
OVCAR-4 = tested on: OVCAR-4
OVCAR-5 = tested on: OVCAR-5
OVCAR-8 = tested on: OVCAR-8
PC-3 = tested on: PC-3
RXF 393 = tested on: RXF 393
SF-268 = tested on: SF-268
SF-539 = tested on: SF-539
SK-MEL-28 = tested on: SK-MEL-28
SK-MEL-2 = tested on: SK-MEL-2
SK-MEL-5 = tested on: SK-MEL-5
SK-OV-3 = tested on: SK-OV-3
SN12C = tested on: SN12C
SNB-19 = tested on: SNB-19
SNB-75 = tested on: SNB-75
SW-620 = tested on: SW-620
T47D = tested on: T47D
TK-10 = tested on: TK-10
U-251 = tested on: U-251
UACC-257 = tested on: UACC-257
UACC-62 = tested on: UACC-62
UO-31 = tested on: UO-31
CAKI-1 = tested on: CAKI-1
CCRF-CEM = tested on: CCRF-CEM
IGROV-1 = tested on: IGROV-1
KM12 = tested on: KM12
RPMI-8226 = tested on: RPMI-8226
SF-295 = tested on: SF-295
SR = tested on: SR

In the case of `CC1CCC(C(C)C2C(O)CC3C4CC=C5CC(O)CCC5(C)C4CCC32C)NC1` (stereo not drawn), the GI50 (786-0) was 32.2 µM (inactive), the GI50 (A498) was > 100 µM (inactive) and the GI50 (A549) was 83 µM (inactive). The GI50 (ACHN) was 42 µM (inactive), the GI50 (BT-549) was > 100 µM (inactive) and the GI50 (COLO 205) was > 100 µM (inactive). The GI50 (DU-145) was 69.8 µM (inactive), the GI50 (EKVX) was > 100 µM (inactive) and the GI50 (HCC 2998) was 11.9 µM (inactive). For the same compound, the GI50 (HCT-116) was 45.3 µM (inactive), the GI50 (HCT-15) was 44 µM and the GI50 (HL-60) was 17.3 µM (inactive). For the same compound, the GI50 (HOP-62) was 27.7 µM (inactive), the GI50 (HOP-92) was 23.7 µM (inactive) and the GI50 (HT-29) was 43.1 µM (inactive). For the same compound, the GI50 (Hs-578T) was 35.9 µM (inactive), the GI50 (K562) was 39.2 µM (inactive) and the GI50 (LOX IMVI) was 21.3 µM (inactive). The GI50 (M14) was > 100 µM (inactive), the GI50 (MCF7) was 39.4 µM (inactive) and the GI50 (MDA-MB-231) was 24.7 µM (inactive). The GI50 (MDA-MB-435) was 30.9 µM (inactive), the GI50 (MOLT-4) was 8.38 µM (inactive) and the GI50 (Malme-3M) was 20.6 µM (inactive). The GI50 (NCI-H226) was 70.8 µM (inactive), the GI50 (NCI-H23) was 36.9 µM (inactive) and the GI50 (NCI-H460) was 48 µM (inactive). The GI50 (NCI-H522) was 63 µM (inactive), the GI50 (NCI/ADR-RES) was 23.4 µM (inactive) and the GI50 (OVCAR-4) was 20.2 µM (inactive). For the same compound, the GI50 (OVCAR-5) was 89.7 µM (inactive), the GI50 (OVCAR-8) was 15.9 µM (inactive) and the GI50 (PC-3) was 26.9 µM (inactive). For the same compound, the GI50 (RXF 393) was 65 µM (inactive), the GI50 (SF-268) was > 100 µM (inactive) and the GI50 (SF-539) was 34.2 µM (inactive). The GI50 (SK-MEL-28) was > 100 µM (inactive), the GI50 (SK-MEL-2) was > 100 µM (inactive) and the GI50 (SK-MEL-5) was 44.2 µM (inactive). The GI50 (SK-OV-3) was > 100 µM (inactive), the GI50 (SN12C) was 20.3 µM (inactive) and the GI50 (SNB-19) was 25.7 µM (inactive). For the same compound, the GI50 (SNB-75) was 28.2 µM (inactive), the GI50 (SW-620) was 31.7 µM (inactive) and the GI50 (T47D) was 62.1 µM (inactive). For the same compound, the GI50 (TK-10) was 14.5 µM (inactive), the GI50 (U-251) was 24.4 µM (inactive) and the GI50 (UACC-257) was 34.5 µM (inactive). The GI50 (UACC-62) was 49.5 µM (inactive) and the GI50 (UO-31) was 41.4 µM (inactive).
In the case of `CCCCCCCCCOC(=O)c1cnc(Cl)cn1`, the GI50 (786-0) was 72.4 µM (inactive), the GI50 (A549) was 26.4 µM (inactive) and the GI50 (ACHN) was 19.4 µM (inactive). For the same compound, the GI50 (BT-549) was 26.5 µM (inactive), the GI50 (CAKI-1) was 16.9 µM (inactive) and the GI50 (CCRF-CEM) was 39.9 µM (inactive). The GI50 (COLO 205) was 22.2 µM (inactive), the GI50 (DU-145) was 19.6 µM (inactive) and the GI50 (EKVX) was 22.3 µM (inactive). The GI50 (HCT-116) was 17.7 µM (inactive), the GI50 (HCT-15) was 17.4 µM and the GI50 (HOP-62) was 24 µM (inactive). The GI50 (HOP-92) was 42.4 µM (inactive), the GI50 (HT-29) was 29 µM (inactive) and the GI50 (Hs-578T) was 22.8 µM (inactive). The GI50 (IGROV-1) was 20.2 µM (inactive), the GI50 (K562) was 36.8 µM (inactive) and the GI50 (KM12) was 17.5 µM (inactive). The GI50 (LOX IMVI) was 19.8 µM (inactive), the GI50 (M14) was 18.4 µM (inactive) and the GI50 (MCF7) was 25 µM (inactive). The GI50 (MDA-MB-231) was 18.5 µM (inactive), the GI50 (MDA-MB-435) was 19.9 µM (inactive) and the GI50 (MOLT-4) was 52.7 µM (inactive). For the same compound, the GI50 (Malme-3M) was 19.6 µM (inactive), the GI50 (NCI-H226) was 18.2 µM (inactive) and the GI50 (NCI-H23) was 18.2 µM (inactive). The GI50 (NCI-H460) was 20.8 µM (inactive), the GI50 (NCI-H522) was 19 µM (inactive) and the GI50 (NCI/ADR-RES) was 22.2 µM (inactive). For the same compound, the GI50 (OVCAR-4) was 27.9 µM (inactive), the GI50 (OVCAR-5) was 29 µM (inactive) and the GI50 (OVCAR-8) was 33.4 µM (inactive). For the same compound, the GI50 (PC-3) was 6.18 µM (inactive), the GI50 (RPMI-8226) was 21.9 µM (inactive) and the GI50 (SF-268) was 21.2 µM (inactive). The GI50 (SF-295) was 17.6 µM (inactive), the GI50 (SF-539) was 25.8 µM (inactive) and the GI50 (SK-MEL-28) was 24 µM (inactive). For the same compound, the GI50 (SK-MEL-2) was 22.1 µM (inactive), the GI50 (SK-MEL-5) was 17.6 µM (inactive) and the GI50 (SK-OV-3) was 34.9 µM (inactive). For the same compound, the GI50 (SN12C) was 18.3 µM (inactive), the GI50 (SNB-19) was 20.9 µM (inactive) and the GI50 (SNB-75) was 22.3 µM (inactive). For the same compound, the GI50 (SR) was 49.1 µM (inactive), the GI50 (SW-620) was 17.3 µM (inactive) and the GI50 (T47D) was 22.1 µM (inactive). For the same compound, the GI50 (TK-10) was 20.5 µM (inactive), the GI50 (U-251) was 19.7 µM (inactive) and the GI50 (UACC-257) was 23.6 µM (inactive). The GI50 (UACC-62) was 18.1 µM (inactive) and the GI50 (UO-31) was 18.5 µM (inactive).
